Laboratory results reported in patent US10975080B2, “Compounds and compositions for inhibiting the activity of SHP2” (NOVARTIS AG, priority 2015, dated 2021).

Target: SHP2 (Homo sapiens (Human), UniProt Q06124)
Test: SHP2 Allosteric Inhibition Assay
Format: biochemical
Details: 0.5 nM SHP2 with 0.5 μM peptide IRS1_pY1172(dPEG8)pY1222; surrogate substrate DiFMUP; 25° C.; read-out: SHP2 IC50
Description: SHP2 Allosteric Inhibition Assay
SHP2 is allosterically activated through binding of bis-tyrosyl-phosphorylated peptides to its Src Homology 2 (SH2) domains. The latter activation step leads to the release of the auto-inhibitory interface of SHP2, which in turn renders the SHP2 protein tyrosine phosphatase (PTP) active and available for substrate recognition and reaction catalysis. The catalytic activity of SHP2 was monitored using the surrogate substrate DiFMUP in a prompt fluorescence assay format.
After 30-60 minutes incubation at 25° C., the surrogate substrate DiFMUP (Invitrogen, cat #D6567) was added to the reaction and incubated at 25° C. for 30 minutes. […] The inhibitor dose response curves were analyzed using normalized IC50 regression curve fitting with control based normalization.

SHP2, sequence (Q06124 whole entry): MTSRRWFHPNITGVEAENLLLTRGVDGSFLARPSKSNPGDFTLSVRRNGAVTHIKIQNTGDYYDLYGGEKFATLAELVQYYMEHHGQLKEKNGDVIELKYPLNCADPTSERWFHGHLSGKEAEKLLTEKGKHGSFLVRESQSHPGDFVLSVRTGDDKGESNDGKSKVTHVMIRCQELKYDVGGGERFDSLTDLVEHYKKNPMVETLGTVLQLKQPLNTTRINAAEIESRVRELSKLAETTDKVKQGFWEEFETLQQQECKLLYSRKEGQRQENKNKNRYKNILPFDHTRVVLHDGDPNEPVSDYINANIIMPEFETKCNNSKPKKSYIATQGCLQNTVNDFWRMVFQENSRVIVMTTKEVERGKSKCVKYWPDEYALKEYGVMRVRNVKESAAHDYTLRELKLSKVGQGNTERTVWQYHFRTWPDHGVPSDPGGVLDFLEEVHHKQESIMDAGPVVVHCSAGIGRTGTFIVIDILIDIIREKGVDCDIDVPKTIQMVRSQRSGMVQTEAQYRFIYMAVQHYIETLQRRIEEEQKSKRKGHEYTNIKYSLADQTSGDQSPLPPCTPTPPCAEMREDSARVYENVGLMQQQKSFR

Row | SMILES | IC50 [nM]
1 | C[C@@H]1OCC2(CCN(c3nc4[nH]nc(-c5ccnc(Cl)c5Br)c4c(=O)n3C)CC2)[C@@H]1N [Example 33, 6-((3S,4S)-4-amino-3-methyl-2-oxa-8-azaspiro[4.5]decan-8-yl)-3-(3-bromo-2-chloropyridin-4-yl)-5-methyl-1,5-dihydro-4H-pyrazolo[3,4-d]pyrimidin-4-one] | 13
2 | C[C@@H]1OCC2(CCN(c3nc4[nH]nc(-c5ccnc(Br)c5)c4c(=O)n3C)CC2)[C@@H]1N [Example 34, 6-((3S,4S)-4-amino-3-methyl-2-oxa-8-azaspiro[4.5]decan-8-yl)-3-(2-bromopyridin-4-yl)-5-methyl-1,5-dihydro-4H-pyrazolo[3,4-d]pyrimidin-4-one] | 27
3 | CNc1nccc(-c2n[nH]c3nc(N4CCC5(CC4)CO[C@@H](C)[C@H]5N)n(C)c(=O)c23)c1Br [Example 35, 6-((3S,4S)-4-amino-3-methyl-2-oxa-8-azaspiro[4.5]decan-8-yl)-3-(3-bromo-2(methylamino)pyridin-4-yl)-5-methyl-1,5-dihydro-4H-pyrazolo[3,4-d]pyrimidin-4-one] | 34
4 | C[C@H]1C[C@@H](N)C2(CCN(c3nc4[nH]nc(-c5ccncc5)c4c(=O)n3C)CC2)C1 [Example 36, 6-((1R,3R)-1-amino-3-methyl-8-azaspiro[4.5]decan-8-yl)-5-methyl-3-(pyridin-4-yl)-1,5-dihydro-4H-pyrazolo[3,4-d]pyrimidin-4-one] | 9
5 | Cn1c(N2CCC3(CC2)C[C@H](F)C[C@H]3N)nc2[nH]nc(-c3ccnc(N)c3Cl)c2c1=O [Example 37, 3-(2-amino-3-chloropyridin-4-yl)-6-((1R,3S)-1-amino-3-fluoro-8-azaspiro[4.5]decan-8-yl)-5-methyl-1,5-dihydro-4H-pyrazolo[3,4-d]pyrimidin-4-one] | 27
6 | Cn1c(N2CCC3(CC2)C[C@H](F)C[C@H]3N)nc2[nH]nc(-c3ccnc(NC4CC4)c3Cl)c2c1=O [Example 38, 6-((1R,3S)-1-amino-3-fluoro-8-azaspiro[4.5]decan-8-yl)-3-(3-chloro-2-(cyclopropylamino)pyridin-4-yl)-5-methyl-1,5-dihydro-4H-pyrazolo[3,4-d]pyrimidin-4-one] | 11
7 | Cn1c(N2CCC3(CC2)C[C@H](F)C[C@H]3N)nc2[nH]nc(-c3ccccc3)c2c1=O [Example 39, 6-((1R,3S)-1-amino-3-fluoro-8-azaspiro[4.5]decan-8-yl)-5-methyl-3-phenyl-1,5-dihydro-4H-pyrazolo[3,4-d]pyrimidin-4-one] | 37
8 | Cc1nc(N(C)C)ccc1-c1n[nH]c2nc(N3CCC4(CC3)CO[C@@H](C)[C@H]4N)n(C)c(=O)c12 [Example 40, 6-((3S,4S)-4-amino-3-methyl-2-oxa-8-azaspiro[4.5]decan-8-yl)-3-(6-(dimethylamino)-2-methylpyridin-3-yl)-5-methyl-1,5-dihydro-4H-pyrazolo[3,4-d]pyrimidin-4-one] | 89
9 | C[C@@H]1OCC2(CCN(c3nc4[nH]nc(-c5ccccc5)c4c(=O)n3C)CC2)[C@@H]1N [Example 41, 6-((3S,4S)-4-amino-3-methyl-2-oxa-8-azaspiro[4.5]decan-8-yl)-5-methyl-3-phenyl-1,5-dihydro-4H-pyrazolo[3,4-d]pyrimidin-4-one] | 33
10 | COc1ccc(-c2n[nH]c3nc(N4CCC5(CC4)CO[C@@H](C)[C@H]5N)n(C)c(=O)c23)cc1 [Example 42, 6-((3S,4S)-4-amino-3-methyl-2-oxa-8-azaspiro[4.5]decan-8-yl)-3-(4-methoxyphenyl)-5-methyl-1,5-dihydro-4H-pyrazolo[3,4-d]pyrimidin-4-one] | 20
11 | C[C@@H]1OCC2(CCN(c3nc4[nH]nc(-c5ccnc(N6CC[C@@H](O)C6)c5Cl)c4c(=O)n3C)CC2)[C@@H]1N [Example 43, 6-((3S,4S)-4-amino-3-methyl-2-oxa-8-azaspiro[4.5]decan-8-yl)-3-(3-chloro-2-((R)-3-hydroxypyrrolidin-1-yl)pyridin-4-yl)-5-methyl-1,5-dihydro-4H-pyrazolo[3,4-d]pyrimidin-4-one] | 84
12 | C[C@@H]1OCC2(CCN(c3nc4[nH]nc(-c5ccnc(Cl)c5)c4c(=O)n3C)CC2)[C@@H]1N [Example 44, 6-((3S,4S)-4-amino-3-methyl-2-oxa-8-azaspiro[4.5]decan-8-yl)-3-(2-chloropyridin-4-yl)-5-methyl-1,5-dihydro-4H-pyrazolo[3,4-d]pyrimidin-4-one] | 16
13 | C[C@@H]1OCC2(CCN(c3nc4[nH]nc(-c5ccnc(N)c5)c4c(=O)n3C)CC2)[C@@H]1N [Example 45, 6-((3S,4S)-4-amino-3-methyl-2-oxa-8-azaspiro[4.5]decan-8-yl)-3-(2-aminopyridin-4-yl)-5-methyl-1,5-dihydro-4H-pyrazolo[3,4-d]pyrimidin-4-one] | 37
14 | CNc1cc(-c2n[nH]c3nc(N4CCC5(CC4)CO[C@@H](C)[C@H]5N)n(C)c(=O)c23)ccn1 [Example 46, 6-((3S,4S)-4-amino-3-methyl-2-oxa-8-azaspiro[4.5]decan-8-yl)-5-methyl-3-(2-(methylamino)pyridin-4-yl)-1,5-dihydro-4H-pyrazolo[3,4-d]pyrimidin-4-one] | 50
15 | Cc1nc(N)ccc1-c1n[nH]c2nc(N3CCC4(CC3)CO[C@@H](C)[C@H]4N)n(C)c(=O)c12 [Example 47, 3-(6-amino-2-methylpyridin-3-yl)-6-((3S,4S)-4-amino-3-methyl-2-oxa-8-azaspiro[4.5]decan-8-yl)-5-methyl-1,5-dihydro-4H-pyrazolo[3,4-d]pyrimidin-4-one] | 37
16 | Cc1nc(N)ccc1-c1n[nH]c2nc(N3CCC4(CC3)C[C@@H](C)C[C@H]4N)n(C)c(=O)c12 [Example 48, 3-(6-amino-2-methylpyridin-3-yl)-6-((1R,3R)-1-amino-3-methyl-8-azaspiro[4.5]decan-8-yl)-5-methyl-1,5-dihydro-4H-pyrazolo[3,4-d]pyrimidin-4-one] | 16
17 | Cc1nc(N)ccc1-c1n[nH]c2nc(N3CCC4(CC3)CC(F)(F)C[C@H]4N)n(C)c(=O)c12 [Example 49, (R)-3-(6-amino-2-methylpyridin-3-yl)-6-(1-amino-3,3-difluoro-8-azaspiro[4.5]decan-8-yl)-5-methyl-1,5-dihydro-4H-pyrazolo[3,4-d]pyrimidin-4-one] | 9
18 | Cn1c(N2CCC3(CC2)CC(F)(F)C[C@H]3N)nc2[nH]nc(-c3ccnc(NC4CC4)c3Cl)c2c1=O [Example 50, (R)-6-(1-amino-3,3-difluoro-8-azaspiro[4.5]decan-8-yl)-3-(3-chloro-2-(cyclopropylamino)pyridin-4-yl)-5-methyl-1,5-dihydro-4H-pyrazolo[3,4-d]pyrimidin-4-one] | 35
19 | Cn1c(N2CCC3(CC2)CC(F)(F)C[C@H]3N)nc2[nH]nc(-c3ccncc3)c2c1=O [Example 51, (R)-6-(1-amino-3,3-difluoro-8-azaspiro[4.5]decan-8-yl)-5-methyl-3-(pyridin-4-yl)-1,5-dihydro-4H-pyrazolo[3,4-d]pyrimidin-4-one] | 14
20 | C[C@@H]1OCC2(CCN(c3nc4[nH]nc(-c5ccc(N)nc5Cl)c4c(=O)n3C)CC2)[C@@H]1N [Example 52, 3-(6-amino-2-chloropyridin-3-yl)-6-((3S,4S)-4-amino-3-methyl-2-oxa-8-azaspiro[4.5]decan-8-yl)-5-methyl-1,5-dihydro-4H-pyrazolo[3,4-d]pyrimidin-4-one] | 23
